Measurements taken from patent publication US20170253601A1, “Substituted Pyrrolidine Compounds” (EPIZYME, INC., priority 2014, published 2017).

biological target: T1, SMYD2 (Homo sapiens, UniProt Q9NRG4); assay: SMYD2 Biochemical Assay (3H-SAM, biotinylated peptide substrate, Flashplate); conditions: IC50 values are an average of n = 1 to n = 50; read-out: SMYD2 Biochem IC50 (μM)*
T1 construct: Full length SMYD2 (NP 064582.2) was cloned; His6 (N, cleaved yes); FLAG (N); made in house; host or cells: Sf9 insect cells
T1 sequence (Q9NRG4 whole entry): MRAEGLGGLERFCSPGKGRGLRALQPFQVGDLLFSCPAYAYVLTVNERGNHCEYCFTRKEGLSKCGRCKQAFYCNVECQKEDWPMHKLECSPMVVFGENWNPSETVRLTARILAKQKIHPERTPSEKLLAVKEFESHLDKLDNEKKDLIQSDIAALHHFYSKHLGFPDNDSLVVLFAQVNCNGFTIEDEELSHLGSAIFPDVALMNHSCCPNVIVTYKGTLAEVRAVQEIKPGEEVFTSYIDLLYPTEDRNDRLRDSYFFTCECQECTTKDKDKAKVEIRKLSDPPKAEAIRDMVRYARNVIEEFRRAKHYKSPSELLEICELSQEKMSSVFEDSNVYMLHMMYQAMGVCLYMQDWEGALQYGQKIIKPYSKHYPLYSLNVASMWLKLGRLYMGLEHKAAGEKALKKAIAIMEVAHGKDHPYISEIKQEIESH
In short: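 Full-length His/FLAG-tagged SMYD2 expressed in Sf9 cells with tag cleaved, 1.5 nM, pre-incubated 30 min at room temperature with compound, then 10 nM 3H-SAM and 60 nM biotinylated peptide added. Buffer 20 mM Bicine pH 7.6, 1 mM TCEP, 0.005% BSG, 0.002% Tween20, 2% DMSO. Stopped with 600 uM cold SAM; 3H-peptide captured on streptavidin Flashplate; IC50 by curve fit.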

Point of comparison: `C[C@H]1CN(Cc2cccc3c2OCO3)C[C@H]1NC(=O)c1cc(C2CC2)on1` (racemic) [compound 331, (±)-cis-N-[1-(2H-1,3-benzodioxol-4-ylmethyl)-4-methyl-pyrrolidin-3-yl]-5-cyclopropyl-1,2-oxazole-3-carboxamide], IC50 3.57 µM. Against it:
- C[C@H]1CN(CC(=O)N2CCNCC2)C[C@H]1NC(=O)c1cc(C2CC2)on1 (racemic) [compound 304, (±)-cis-5-cyclopropyl-N-{4-methyl-1-[2-oxo-2-(piperazin-1-yl)ethyl]pyrrolidin-3-yl}-1,2-oxazole-3-carboxamide] — higher, > 50 µM
- C[C@H]1CN(Cc2nccn2C)C[C@H]1NC(=O)c1cc(C2CC2)on1 (racemic) [compound 305, (±)-cis-5-cyclopropyl-N-{4-methyl-1-[(1-methyl-1H-imidazol-2-yl)methyl]pyrrolidin-3-yl}-1,2-oxazole-3-carboxamide] — 12-fold higher, 41.1 µM
- C[C@H]1CN(Cc2ccnn2C)C[C@H]1NC(=O)c1cc(C2CC2)on1 (racemic) [compound 306, (±)-cis-5-cyclopropyl-N-{4-methyl-1-[(1-methyl-1H-pyrazol-5-yl)methyl]pyrrolidin-3-yl}-1,2-oxazole-3-carboxamide] — 12-fold higher, 41.2 µM
- C[C@H]1CN(c2cccc(Cl)c2)C[C@H]1NC(=O)c1cc(C2CC2)on1 (racemic) [compound 307, (±)-cis-N-[1-(3-chlorophenyl)-4-methylpyrrolidin-3-yl]-5-cyclopropyl-1,2-oxazole-3-carboxamide] — higher, > 50 µM
- COc1ccc(N2C[C@H](C)[C@H](NC(=O)c3cc(C4CC4)on3)C2)cc1 (racemic) [compound 308, (±)-cis-5-cyclopropyl-N-[1-(4-methoxy-phenyl)-4-methyl-pyrrolidin-3-yl]-1,2-oxazole-3-carboxamide] — higher, > 50 µM
- C[C@@H]1CN(c2cccnc2)C[C@H]1NC(=O)c1cc(C2CC2)on1 (racemic) [compound 309, (±)-trans-5-cyclopropyl-N-[4-methyl-1-(pyridin-3-yl)pyrrolidin-3-yl]-1,2-oxazole-3-carboxamide] — higher, > 50 µM
- C[C@@H]1CN(CC(N)=O)C[C@H]1NC(=O)c1cc(C2CC2)on1 (racemic) [compound 310, (±)-trans-N-[1-(carbamoylmethyl)-4-methylpyrrolidin-3-yl]-5-cyclopropyl-1,2-oxazole-3-carboxamide] — higher, > 50 µM
- C[C@@H]1CN(CC(=O)N2CCNCC2)C[C@H]1NC(=O)c1cc(C2CC2)on1 (racemic) [compound 311, (±)-trans-5-cyclopropyl-N-{4-methyl-1-[2-oxo-2-(piperazin-1-yl)ethyl]pyrrolidin-3-yl}-1,2-oxazole-3-carboxamide] — higher, > 50 µM
- C[C@@H]1CN(c2ccccn2)C[C@H]1NC(=O)c1cc(C2CC2)on1 (racemic) [compound 312, (±)-trans-5-cyclopropyl-N-[4-methyl-1-(pyridin-2-yl)pyrrolidin-3-yl]-1,2-oxazole-3-carboxamide] — higher, > 50 µM
- C[C@@H]1CN(c2ccncc2)C[C@H]1NC(=O)c1cc(C2CC2)on1 (racemic) [compound 313, (±)-trans-5-cyclopropyl-N-[4-methyl-1-(pyridin-4-yl)pyrrolidin-3-yl]-1,2-oxazole-3-carboxamide] — higher, > 50 µM
- C[C@@H]1CN(c2ccnc(N)n2)C[C@H]1NC(=O)c1cc(C2CC2)on1 (racemic) [compound 314, (±)-trans-N-[1-(2-amino-pyrimidin-4-yl)-4-methylpyrrolidin-3-yl]-5-cyclopropyl-1,2-oxazole-3-carboxamide] — higher, > 50 µM
- C[C@@H]1CN(c2ncccn2)C[C@H]1NC(=O)c1cc(C2CC2)on1 (racemic) [compound 315, (±)-trans-5-cyclopropyl-N-[4-methyl-1-(pyrimidin-2-yl)pyrrolidin-3-yl]-1,2-oxazole-3-carboxamide] — higher, > 50 µM
- C[C@@H]1CN(c2ccncn2)C[C@H]1NC(=O)c1cc(C2CC2)on1 (racemic) [compound 316, (±)-trans-5-cyclopropyl-N-[4-methyl-1-(pyrimidin-4-yl)pyrrolidin-3-yl]-1,2-oxazole-3-carboxamide] — higher, > 50 µM
- CC(c1ccccc1)N1C[C@H](C)[C@H](NC(=O)c2cc(C3CC3)on2)C1 (mixture of isomers) [compound 317, (±)-cis-5-cyclopropyl-N-[4-methyl-1-(1-phenyl-ethyl)pyrrolidin-3-yl]-1,2-oxazole-3-carboxamide] — 3.1-fold lower, 1.14 µM
- C[C@H]1CN(c2ccccn2)C[C@H]1NC(=O)c1cc(C2CC2)on1 (racemic) [compound 318, (±)-cis-5-cyclopropyl-N-[4-methyl-1-(pyridin-2-yl)pyrrolidin-3-yl]-1,2-oxazole-3-carboxamide] — higher, > 50 µM
- C[C@H]1CN(c2ccncc2)C[C@H]1NC(=O)c1cc(C2CC2)on1 (racemic) [compound 319, (±)-cis-5-cyclopropyl-N-[4-methyl-1-(pyridin-4-yl)pyrrolidin-3-yl]-1,2-oxazole-3-carboxamide] — higher, > 50 µM
- Cc1nc[nH]c1CN1C[C@H](C)[C@H](NC(=O)c2cc(C3CC3)on2)C1 (racemic) [compound 320, (±)-cis-5-cyclopropyl-N-{4-methyl-1-[(4-methyl-1H-imidazol-5-yl)methyl]pyrrolidin-3-yl}-1,2-oxazole-3-carboxamide] — 3.2-fold higher, 11.6 µM
- C[C@H]1CN(Cc2ccc(Cl)cc2Cl)C[C@H]1NC(=O)c1cc(C2CC2)on1 (racemic) [compound 321, (±)-cis-5-cyclopropyl-N-{1-[(2,4-dichloro-phenyl)methyl]-4-methylpyrrolidin-3-yl}-1,2-oxazole-3-carboxamide] — within 1.5-fold, 4.64 µM
- C[C@H]1CN(Cc2c(Cl)cccc2Cl)C[C@H]1NC(=O)c1cc(C2CC2)on1 (racemic) [compound 322, (±)-cis-5-cyclopropyl-N-{1-[(2,6-dichloro-phenyl)methyl]-4-methylpyrrolidin-3-yl}-1,2-oxazole-3-carboxamide] — higher, > 50 µM
- C[C@H]1CN(Cc2c[nH]c3cc(Cl)ccc23)C[C@H]1NC(=O)c1cc(C2CC2)on1 (racemic) [compound 324, (±)-cis-N-{1-[(6-chloro-1H-indol-3-yl)methyl]-4-methylpyrrolidin-3-yl}-5-cyclopropyl-1,2-oxazole-3-carboxamide] — 2.6-fold higher, 9.34 µM
- CC(=O)Nc1cccc(N2C[C@H](C)[C@H](NC(=O)c3cc(C4CC4)on3)C2)c1 (racemic) [compound 325, (±)-cis-5-cyclopropyl-N-[1-(3-acetamidophenyl)-4-methylpyrrolidin-3-yl]-1,2-oxazole-3-carboxamide] — higher, > 50 µM
- Cc1nn(C)cc1CN1C[C@H](C)[C@H](NC(=O)c2cc(C3CC3)on2)C1 (racemic) [compound 326, (±)-cis-5-cyclopropyl-N-{1-[(1,3-dimethyl-1H-pyrazol-4-yl)methyl]-4-methylpyrrolidin-3-yl}-1,2-oxazole-3-carboxamide] — 2.1-fold lower, 1.67 µM
- C[C@H]1CN(Cc2ncc[nH]2)C[C@H]1NC(=O)c1cc(C2CC2)on1 (racemic) [compound 327, (±)-cis-5-cyclopropyl-N-[1-(1H-imidazol-2-ylmethyl)-4-methyl-pyrrolidin-3-yl]-1,2-oxazole-3-carboxamide] — 14-fold higher, 49.7 µM
- C[C@H]1CN(Cc2c[nH]cn2)C[C@H]1NC(=O)c1cc(C2CC2)on1 (racemic) [compound 328, (±)-cis-5-cyclopropyl-N-[1-(1H-imidazol-4-ylmethyl)-4-methyl-pyrrolidin-3-yl]-1,2-oxazole-3-carboxamide] — within 1.5-fold, 2.65 µM
- C[C@H]1CN(Cc2ccc3ncccc3c2)C[C@H]1NC(=O)c1cc(C2CC2)on1 (racemic) [compound 332, (±)-cis-5-cyclopropyl-N-[4-methyl-1-(quinolin-6-ylmethyl)pyrrolidin-3-yl]-1,2-oxazole-3-carboxamide] — 6.8-fold higher, 24.2 µM
- COc1cc(CN2C[C@H](C)[C@H](NC(=O)c3cc(C4CC4)on3)C2)cc(OC)c1 (racemic) [compound 333, (±)-cis-5-cyclopropyl-N-{1-[(3,5-dimethoxy-phenyl)methyl]-4-methylpyrrolidin-3-yl}-1,2-oxazole-3-carboxamide] — higher, > 50 µM
- C[C@H]1CN(c2ccnc(N)n2)C[C@H]1NC(=O)c1cc(C2CC2)on1 (racemic) [compound 334, (±)-cis-N-[1-(2-amino-pyrimidin-4-yl)-4-methylpyrrolidin-3-yl]-5-cyclopropyl-1,2-oxazole-3-carboxamide] — higher, > 50 µM
- CC(=O)Nc1ccccc1N1C[C@H](C)[C@H](NC(=O)c2cc(C3CC3)on2)C1 (racemic) [compound 335, (±)-cis-5-cyclopropyl-N-[1-(2-acetamido-phenyl)-4-methylpyrrolidin-3-yl]-1,2-oxazole-3-carboxamide] — higher, > 50 µM
- C[C@H]1CN(c2cccnc2)C[C@H]1NC(=O)c1cc(C2CC2)on1 (racemic) [compound 336, (±)-cis-5-cyclopropyl-N-[4-methyl-1-(pyridin-3-yl)pyrrolidin-3-yl]-1,2-oxazole-3-carboxamide] — higher, > 50 µM
- C[C@H]1CN(CCC2CCNCC2)C[C@H]1NC(=O)c1cc(C2CC2)on1 (racemic) [compound 337, (±)-cis-5-cyclopropyl-N-{4-methyl-1-[2-(piperidin-4-yl)ethyl]pyrrolidin-3-yl}-1,2-oxazole-3-carboxamide] — 3-fold higher, 10.6 µM
- C[C@H]1CN(CC2CCN(C)CC2)C[C@H]1NC(=O)c1cc(C2CC2)on1 (racemic) [compound 338, (±)-cis-5-cyclopropyl-N-{4-methyl-1-[(1-methylpiperidin-4-yl)methyl]pyrrolidin-3-yl}-1,2-oxazole-3-carboxamide] — higher, > 50 µM
- C[C@H]1CN(c2ncccn2)C[C@H]1NC(=O)c1cc(C2CC2)on1 (racemic) [compound 339, (±)-cis-5-cyclopropyl-N-[4-methyl-1-(pyrimidin-2-yl)pyrrolidin-3-yl]-1,2-oxazole-3-carboxamide] — higher, > 50 µM
